In patent US20230085307A1, “PYRIDAZINONE COMPOUND AND HERBICIDE” (NISSAN CHEMICAL CORPORATION, priority 2019, published 2023):

How the values were obtained:
blackgrass = assay: Test Example 4: herbicidal effect by soil treatment (Table 19, symbol J); format: in vivo, blackgrass (Alopecurus myosuroides)
Method in brief: (§1)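 Pre-emergence style soil spray: seeds under ~1.5 cm sterilized diluvial soil received a uniform coat of emulsion diluted to the predetermined herbicide amount. Greenhouse 25–30° C; readout at week three on previously defined criteria.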

windgrass [1] = assay: Test Example 5: herbicidal effect by foliage application, plastic box (Table 20, symbol L); format: in vivo, windgrass (Apera spica-venti); details: foliage application
Method in brief: (§2)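 Plants were sown into sterilized diluvial soil under about 1.5 cm cover and kept in a greenhouse at 25° C. to 30° C. Fourteen days on, foliage received an even spray of the diluted emulsion. Herbicidal or crop effect was judged three weeks afterwards.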

lambsquarters [2] = assay: Test Example 5: herbicidal effect by foliage application, plastic box (Table 20, symbol O); format: in vivo, lambsquarters (Chenopodium album); details: foliage application
Method in brief: as §2

southern crabgrass [3] = assay: Test Example 4: herbicidal effect by soil treatment (Table 19, symbol F); format: in vivo, southern crabgrass (Digitaria ciliaris)
Method in brief: as §1

late watergrass [4] = assay: Test Example 1: herbicidal activity, application before weed generation under submerged conditions (Table 16, symbol A); format: in vivo, late watergrass (Echinochloa oryzicola)
Method in brief: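 Alluvial soil was flooded to 4 cm depth, weed seeds were sown mixed and 2.5-leaf rice seedlings were transplanted. On sowing day, the compound's emulsion, diluted in water to a set dose, was applied to the water surface. Plants grew at 25–30 °C and were scored 0–5 after three weeks.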

Italian ryegrass [5] = assay: Test Example 5: herbicidal effect by foliage application, plastic box (Table 20, symbol K); format: in vivo, Italian ryegrass (Lolium multiflorum); details: foliage application
Method in brief: as §2

lambsquarters [6] = assay: Test Example 4: herbicidal effect by soil treatment (Table 19, symbol O); format: in vivo, lambsquarters (Chenopodium album)
Method in brief: as §1

Japanese bulrush = assay: Test Example 2: herbicidal activity, application during weed generation under submerged conditions (Table 17, symbol B); format: in vivo, Japanese bulrush (Schoenoplectus juncoides); details: application during weed generation, submerged conditions
Method in brief: (§3)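 Wagner pot, alluvial soil, 4 cm flood; mixed sowing of all species; greenhouse 25° C.–30° C. Emulsifiable formulation, water-diluted to predetermined dose, applied to paddy water at 1–2 leaf stage. Effect rated at 3 wk using the earlier test's scoring criteria.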

Chinese sprangletop = assay: Test Example 3: herbicidal effect by foliage application, Wagner pot (Table 18, symbol D); format: in vivo, chinese sprangletop (Leptochloa chinensis)
Method in brief: (§4)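 Plants were sown in alluvial soil held under 0.1–0.5 cm standing water and grown 14 days in a greenhouse at 25–30 °C. An emulsifiable formulation, water-diluted to the set dose, was then sprayed onto the foliage, and effects were scored three weeks later using previously defined criteria.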

late watergrass [7] = assay: Test Example 2: herbicidal activity, application during weed generation under submerged conditions (Table 17, symbol A); format: in vivo, late watergrass (Echinochloa oryzicola); details: application during weed generation, submerged conditions
Method in brief: as §3

windgrass [8] = assay: Test Example 4: herbicidal effect by soil treatment (Table 19, symbol L); format: in vivo, windgrass (Apera spica-venti)
Method in brief: as §1

persian speedwell [9] = assay: Test Example 4: herbicidal effect by soil treatment (Table 19, symbol R); format: in vivo, Persian speedwell (Veronica persica)
Method in brief: as §1

Italian ryegrass [10] = assay: Test Example 4: herbicidal effect by soil treatment (Table 19, symbol K); format: in vivo, Italian ryegrass (Lolium multiflorum)
Method in brief: as §1

southern crabgrass [11] = assay: Test Example 5: herbicidal effect by foliage application, plastic box (Table 20, symbol F); format: in vivo, southern crabgrass (Digitaria ciliaris); details: foliage application
Method in brief: as §2

persian speedwell [12] = assay: Test Example 5: herbicidal effect by foliage application, plastic box (Table 20, symbol R); format: in vivo, Persian speedwell (Veronica persica); details: foliage application
Method in brief: as §2

barnyard grass = assay: Test Example 3: herbicidal effect by foliage application, Wagner pot (Table 18, symbol H); format: in vivo, barnyard grass (Echinochloa crus-galli)
Method in brief: as §4

velvetleaf = assay: Test Example 4: herbicidal effect by soil treatment (Table 19, symbol M); format: in vivo, velvetleaf (Abutilon theophrasti)
Method in brief: as §1

[13] = amount of applied herbicide 320 g/ha
[14] = 320 g/ha, evaluated three weeks after application
[15] = amount of applied herbicide 246 g/ha
[16] = 246 g/ha, three weeks after application

CCCC(=O)Oc1c(C)nn(C)c(=O)c1-c1c(-c2ccc(OC3CC3)cc2)sc2ccc(F)cc12 [2-218]
J: blackgrass, herbicidal effect rating (blackgrass; [13]): 0 (Herbicidal rate of 5% or less (almost no effect)) | herbicidal effect on L: windgrass (criteria 0-5) (windgrass [1]; [14]): 5 (Herbicidal rate of 90% or more (almost completely withered)) | herbicidal effect on O: lambsquarters (criteria 0-5) (lambsquarters [2]; [14]): 5 (Herbicidal rate of 90% or more (almost completely withered)) | F: southern crabgrass, herbicidal effect rating (southern crabgrass [3]; [13]): 0 (Herbicidal rate of 5% or less (almost no effect)) | Herbicidal effect on A: late watergrass (grade 0-5) (late watergrass [4]; 320 g/ha applied herbicide): 5 (Herbicidal rate of 90% or more (almost completely withered)) | herbicidal effect on K: Italian ryegrass (criteria 0-5) (Italian ryegrass [5]; [14]): 4 (Herbicidal rate of 70% or more and less than 90%) | O: lambsquarters, herbicidal effect rating (lambsquarters [6]; [13]): 4 (Herbicidal rate of 70% or more and less than 90%) | herbicidal effect rating, B: Japanese bulrush (Japanese bulrush; AAH 320 g/ha): 3 (Herbicidal rate of 40% or more and less than 70%) | herbicidal effect on D: Chinese sprangletop (Chinese sprangletop; [13]): 3 (Herbicidal rate of 40% or more and less than 70%) | herbicidal effect rating, A: late watergrass (late watergrass [7]; AAH 320 g/ha): 1 (Herbicidal rate of 5% or more and less than 20%) | L: windgrass, herbicidal effect rating (windgrass [8]; [13]): 0 (Herbicidal rate of 5% or less (almost no effect)) | R: persian speedwell, herbicidal effect rating (persian speedwell [9]; [13]): 4 (Herbicidal rate of 70% or more and less than 90%) | K: Italian ryegrass, herbicidal effect rating (Italian ryegrass [10]; [13]): 4 (Herbicidal rate of 70% or more and less than 90%) | herbicidal effect on F: southern crabgrass (criteria 0-5) (southern crabgrass [11]; [14]): 0 (Herbicidal rate of 5% or less (almost no effect)) | herbicidal effect on R: persian speedwell (criteria 0-5) (persian speedwell [12]; [14]): 5 (Herbicidal rate of 90% or more (almost completely withered)) | herbicidal effect on H: barnyard grass (barnyard grass; [13]): 5 (Herbicidal rate of 90% or more (almost completely withered)) | M: velvetleaf, herbicidal effect rating (velvetleaf; [13]): 0 (Herbicidal rate of 5% or less (almost no effect))

CCCC(=O)Oc1c(C)nn(C)c(=O)c1-c1c(-c2ccc(F)cc2OCC)oc2ccc(C)cc12 [9-010]
J: blackgrass, herbicidal effect grade (blackgrass; [15]): 0 (Herbicidal rate of 5% or less (almost no effect)) | herbicidal effect on windgrass (L) (windgrass [1]; [16]): 0 (Herbicidal rate of 5% or less (almost no effect)) | herbicidal effect on lambsquarters (O) (lambsquarters [2]; [16]): 3 (Herbicidal rate of 40% or more and less than 70%) | F: southern crabgrass, herbicidal effect grade (southern crabgrass [3]; [15]): 0 (Herbicidal rate of 5% or less (almost no effect)) | Herbicidal effect, A: late watergrass (late watergrass [4]; [15]): 5 (Herbicidal rate of 90% or more (almost completely withered)) | herbicidal effect on Italian ryegrass (K) (Italian ryegrass [5]; [16]): 0 (Herbicidal rate of 5% or less (almost no effect)) | O: lambsquarters, herbicidal effect grade (lambsquarters [6]; [15]): 0 (Herbicidal rate of 5% or less (almost no effect)) | herbicidal effect rating, B: Japanese bulrush (Japanese bulrush; AAH 246 g/ha): 0 (Herbicidal rate of 5% or less (almost no effect)) | Herbicidal effect on D (Chinese sprangletop), foliage application (Chinese sprangletop; [15]): 5 (Herbicidal rate of 90% or more (almost completely withered)) | herbicidal effect rating, A: late watergrass (late watergrass [7]; AAH 246 g/ha): 0 (Herbicidal rate of 5% or less (almost no effect)) | L: windgrass, herbicidal effect grade (windgrass [8]; [15]): 0 (Herbicidal rate of 5% or less (almost no effect)) | R: persian speedwell, herbicidal effect grade (persian speedwell [9]; [15]): 0 (Herbicidal rate of 5% or less (almost no effect)) | K: Italian ryegrass, herbicidal effect grade (Italian ryegrass [10]; [15]): 0 (Herbicidal rate of 5% or less (almost no effect)) | herbicidal effect on southern crabgrass (F) (southern crabgrass [11]; [16]): 3 (Herbicidal rate of 40% or more and less than 70%) | herbicidal effect on persian speedwell (R) (persian speedwell [12]; [16]): 3 (Herbicidal rate of 40% or more and less than 70%) | Herbicidal effect on H (barnyard grass), foliage application (barnyard grass; [15]): 4 (Herbicidal rate of 70% or more and less than 90%) | M: velvetleaf, herbicidal effect grade (velvetleaf; [15]): 0 (Herbicidal rate of 5% or less (almost no effect))
